We go through 14 compounds from US6727272B1, “Leflunomide analogs for treating rheumatoid arthritis” (Unitech Pharmaceuticals, Inc., priority 2002, dated 2004).

SMILES strings stand for the structures. Read-outs that look alike come from different tables or passages of the source.

This experiment has as its system Carrageenan-stimulated inflammation on the rear left footpad of the rat. The experiment is described as follows: Carrageenan-induced footpad edema in rats (Edema Rate E% and Inhibition Rate I%). The format is in vivo, Wistar Albino Rats. As to conditions: sc, vs control group edema rate, read-out: percentage inhibition rate (I %). As to the method: Wistar Albino Rats of 4 to 6 weeks old with weights of 100-150 g were used for the studies.
Weigh 30 mg of λ-carrageenan (Sigma Chemical) powder; add 3 mL of saline to make the 1% carrageenan solution.
Individually weigh 10 mg of each testing compound; add 10 mL of 1% CMC and shake to make the suspension.
In the present invention, Carrageenan was used to stimulate the inflammation on the rear left footpad of the rat. The inflammation on the left footpad of each rat was measured for rats with and without treatment. Treatment includes leflunomide analogs, dexamethasone, ibuprofen, and Malononitrilamide (MNA). Measurements of the inflamation at pre-determined time points were made.
The rats were weighed and divided into three groups: (1) Control Group, (2) Test Group, and (3) Comparison Group. For each compound, 5 rats were used and marked on the tails. Before injecting carrageenan, the volume of each left footpad was measured (V0). Each rat was injected in the back as follows:
(1) Control Group: 1% CMC for Control Group,
(2) Testing Group: testing compound (10 mg/kg each) in 1% CMC, and
(3) Comparison Group: dexamethasone (1.5 mg/kg in 1% CMC), ibuprofen 10 mg/kg in 1% CMC, MNA in 1% CMC.
One hour later, 0.05 mL of 1% carrageenan was injected onto the rear footpad of each rat to initiate the inflammation. Measure the volume of the rear left footpad (Vt) at 0.5, 1, 2, 3, 4, and 5 hours.
The Edema Rate (E%) and the Inhibition Rate (I%) are calculated as follows and the results of the in-vivo studies are summarized in Table 1 and Table 2. [formula]
V0=Volume (mL) of the rear left footpad before the injection of Carrageenan.
Vt=Volume (mL) of the rear left footpad at “t” time after the injection of Carrageenan
Ec=Edema Rate of the, Control Group
Et=Edema Rate of the Testing Group and Comparison Group
Background: The carrageenan paw model is a standard test of acute inflammation.

Take `C[C@@H]1C[C@H]2[C@@H]3CCC4=CC(=O)C=C[C@]4(C)[C@@]3(F)[C@@H](O)C[C@]2(C)[C@@]1(O)C(=O)CO` [Dexamethasone, reference compound]: the inhibition in vivo at 1.5 mg/kg (1 h, 1 hr) was determined as 73.6%; the inhibition in vivo at 1.5 mg/kg (2 h, 2 hr) was found to be 64.5%; the inhibition in vivo at 1.5 mg/kg (3 h, 3 hr) was determined as 65.8%; the inhibition in vivo at 1.5 mg/kg (4 h, 4 hr) was 66.5%; the inhibition in vivo at 1.5 mg/kg (5 h, 5 hr) was found to be 66.4%.

As to `CC(C)Cc1ccc(C(C)C(=O)O)cc1` (stereo not drawn) [Ibuprofen, reference compound], the inhibition in vivo at 10 mg/kg is 9.1% (1 h, 1 hr); 21.6% (2 h, 2 hr); 45.9% (3 h, 3 hr); 44.4% (4 h, 4 hr); 38% (5 h, 5 hr). The inhibition in vivo at 20 mg/kg by setting is: (1 h, 1 hr) 20.8%; (2 h, 2 hr) 43.2%; (3 h, 3 hr) 55.7%; (4 h, 4 hr) 55.1%; (5 h, 5 hr) 51.6%. Moreover, the inhibition in vivo at 30 mg/kg is, setting by setting: (1 h, 1 hr) 65.4%; (2 h, 2 hr) 67.8%; (3 h, 3 hr) 79.7%; (4 h, 4 hr) 74.9%; (5 h, 5 hr) 53%.

In the case of `Cc1oncc1C(=O)Nc1ccc(C(F)(F)F)cc1` [Leflunomide, N-(4-trifluoromethylphenyl)-4-carboxamidyl-5-methylisoxazole], the inhibition in vivo at 5 mg/kg reads like this: (1 h, 1 hr) 3.8%; (2 h, 2 hr) 19.5%; (3 h, 3 hr) 41%; (4 h, 4 hr) 38.6%; (5 h, 5 hr) 38.3%. Moreover, the inhibition in vivo at 10 mg/kg (1 h, 1 hr) turned out to be 28.4%; the inhibition in vivo at 10 mg/kg (2 h, 2 hr) worked out at 34.3%; the inhibition in vivo at 10 mg/kg (3 h, 3 hr) turned out to be 55%; the inhibition in vivo at 10 mg/kg (4 h, 4 hr) is 47.8%; the inhibition in vivo at 10 mg/kg (5 h, 5 hr) amounted to 46%. Further, the inhibition in vivo at 20 mg/kg was 45.7% (1 h, 1 hr); 50% (2 h, 2 hr); 60.4% (3 h, 3 hr); 60.3% (4 h, 4 hr); 57.4% (5 h, 5 hr).

Turning to `Cc1cc(C(=O)Nc2ccc(C(F)(F)F)cc2)no1` [Compound 5f, N-(4-Trifluoromethylphenyl)3-carboxamidyl-5-methylisoxazole], the inhibition in vivo at 10 mg/kg is, setting by setting: (1 h, 1 hr) 46.2%; (2 h, 2 hr) 53.8%; (3 h, 3 hr) 54.6%; (4 h, 4 hr) 58.4%; (5 h, 5 hr) 58.3%.

As to `COc1ccc(NC(=O)c2cc(C)on2)cc1` [Compound 5h, N-(4-Methoxyphenyl)-3carboxamidyl-5-methylisoxazole], the inhibition in vivo at 10 mg/kg (1 h, 1 hr) turned out to be 24%; the inhibition in vivo at 10 mg/kg (2 h, 2 hr) amounted to 18.9%; the inhibition in vivo at 10 mg/kg (3 h, 3 hr) is 41.6%; the inhibition in vivo at 10 mg/kg (4 h, 4 hr) turned out to be 44.3%; the inhibition in vivo at 10 mg/kg (5 h, 5 hr) stood at 43.1%.

For the compound `Cc1cc(C(=O)Nc2ccccc2Cl)no1` [Compound 5b], the inhibition in vivo at 10 mg/kg was 80.1% (1 h, 1 hr); 82.5% (2 h, 2 hr); 79.4% (3 h, 3 hr); 79% (4 h, 4 hr); 77.7% (5 h, 5 hr).

In the case of `Cc1cc(C(=O)Nc2ccc(F)cc2)no1` [Compound 5k, N-(4-Fluorophenyl)-3-carboxamidyl-5-methylisoxazole], the inhibition in vivo at 10 mg/kg runs as follows: (1 h, 1 hr) 46.2%; (2 h, 2 hr) 17.5%; (3 h, 3 hr) 38.7%; (4 h, 4 hr) 43.5%; (5 h, 5 hr) 43.7%.

For `Cc1cc(C(=O)Nc2cccc(C(F)(F)F)c2)no1` [Compound 5e, N-(3-Trifluoromethyl)-3-carboxamidyl-5-methylisoxazole], the inhibition in vivo at 10 mg/kg came to 26% (1 h, 1 hr); 41.7% (2 h, 2 hr); 40.7% (3 h, 3 hr); 44% (4 h, 4 hr); 46.8% (5 h, 5 hr).

`Cc1cc(C(=O)Nc2ccc(C(=O)O)cc2)no1` [Compound 5j, 4-[(5-Methylisoxazole-3-carbonyl)-amino]-benzoic acid]: the inhibition in vivo at 10 mg/kg came to 50.5% (1 h, 1 hr); 46.7% (2 h, 2 hr); 56.2% (3 h, 3 hr); 58.3% (4 h, 4 hr); 57.4% (5 h, 5 hr).

On to `COc1cc(NC(=O)c2cc(C)on2)cc(OC)c1OC` [Compound 5i, N-(3,4,5-Trimethoxyphenyl)-3-carboxamidyl-5-methylisoxazole], for which the inhibition in vivo at 10 mg/kg by setting is: (1 h, 1 hr) 6.7%; (2 h, 2 hr) 34%; (3 h, 3 hr) 39.1%; (4 h, 4 hr) 42.7%; (5 h, 5 hr) 42.5%.

In the case of `Cc1cc(C(=O)Nc2cccc(Cl)c2)no1` [Compound 5c, N-(3-Chlorophenyl)-3-carboxamidyl-5-methylisoxazole], the inhibition in vivo at 10 mg/kg came out at 64.4% (1 h, 1 hr); 55.3% (2 h, 2 hr); 60.6% (3 h, 3 hr); 63.8% (4 h, 4 hr); 61.1% (5 h, 5 hr).

`Cc1cc(C(=O)Nc2ccc(Cl)cc2Cl)no1` [Compound 5g, N-(2,4-Dichlorophenyl)-3carboxamidyl-5-methylisoxazole]: the inhibition in vivo at 10 mg/kg reads like this: (1 h, 1 hr) 79.3%; (2 h, 2 hr) 83.1%; (3 h, 3 hr) 77.4%; (4 h, 4 hr) 79%; (5 h, 5 hr) 78%.

Take `Cc1cc(C(=O)Nc2ccc(Cl)cc2)no1` [Compound 5d, N-(4-Chlorophenyl)-3carboxamidyl-5-methyisoxazole]: the inhibition in vivo at 10 mg/kg is, setting by setting: (1 h, 1 hr) 70.2%; (2 h, 2 hr) 72.8%; (3 h, 3 hr) 77.6%; (4 h, 4 hr) 77.8%; (5 h, 5 hr) 76%.

Regarding `Cc1cc(C(=O)Nc2ccccc2)no1` [Compound 5a, N-(Phenyl)-3-carboxamidyl-5-methylisoxazole], the inhibition in vivo at 10 mg/kg (1 h, 1 hr) was 62.5%; the inhibition in vivo at 10 mg/kg (2 h, 2 hr) was determined as 74.9%; the inhibition in vivo at 10 mg/kg (3 h, 3 hr) turned out to be 78.8%; the inhibition in vivo at 10 mg/kg (4 h, 4 hr) turned out to be 78.4%; the inhibition in vivo at 10 mg/kg (5 h, 5 hr) was found to be 44.5%.
